Values after ≈ are worked out from the molar mass of the structure shown. Values belong to the compound of their own block, whether it stands above or below them.
Assays:
Assay type in all cases: cell-based
L100 S. aureus ATCC6538P = assay: MIC, broth microdilution (CLSI); details: Staphylococcus aureus, ATCC6538P
Procedure: (§1) Antibacterial activity. […] Each bacterial strain was inoculated with 2-5×10^5 CFU/ml, Candida albicans with 10^4 CFU/ml. Cultures were incubated at 35°C in air. After 18-24 hours visual readings were performed and MICs (Minimal Inhibitory Concentrations) determined. The effect of 30% bovine serum was determined under the same experimental conditions. The strains used were clinical isolates or strains from American Type Culture Collection (ATCC).

L1400 S. aureus HA-MRSA = assay: MIC, broth microdilution (CLSI); details: Staphylococcus aureus, MRSA
Procedure: as §1

L1577 S. epidermidis = assay: MIC, broth microdilution (CLSI); details: Staphylococcus epidermidis
Procedure: as §1

[1] = test system: L1729 S. haemolyticus MDR; assay: MIC, broth microdilution (CLSI); details: Staphylococcus haemolyticus
Procedure: as §1

L1730 S. haemolyticus = assay: MIC, broth microdilution (CLSI); details: L1730 S. haemolyticus, cation-adjusted Mueller Hinton Broth, 35°C, 18-24 hours
Procedure: as §1

L3294 M. catarrhalis = assay: MIC, broth microdilution (CLSI); details: Moraxella catarrhalis
Procedure: as §1

[2] = test system: L4061 S. aureus MRSA - GISA; assay: MIC, broth microdilution (CLSI); details: Staphylococcus aureus, MRSA
Procedure: as §1

L44 S. pneumoniae = assay: MIC, broth microdilution (CLSI); details: Streptococcus pneumoniae
Procedure: as §1

L47 E. coli = assay: MIC, broth microdilution (CLSI); details: Escherichia coli
Procedure: as §1

L49 S. pyogenes C203 = assay: MIC, broth microdilution (CLSI); details: Streptococcus pyogenes
Procedure: as §1

L559 E. faecalis = assay: MIC, broth microdilution (CLSI); details: Enterococcus faecalis
Procedure: as §1

L560 E. faecalis VanA = assay: MIC, broth microdilution (CLSI); details: Enterococcus faecalis
Procedure: as §1

L568 E. faecium = assay: MIC, broth microdilution (CLSI); details: Enterococcus faecium
Procedure: as §1

L569 E. faecium VanA = assay: MIC, broth microdilution (CLSI)
Procedure: as §1

L819 S. aureus Smith = assay: MIC, broth microdilution (CLSI); details: Staphylococcus aureus
Procedure: as §1

[3] = test system: VA80201 S. aureus CA-MRSA; assay: MIC, broth microdilution (CLSI); details: Staphylococcus aureus, MRSA
Procedure: as §1

[4] = test system: VA8101 S. agalactiae (Group B); assay: MIC, broth microdilution (CLSI); details: Streptococcus agalactiae
Procedure: as §1

[5] = test system: L4187 E. faecium VanA - Lnz R - Cpx R; assay: microbe, parasite or virus in culture; details: Enterococcus faecium
Procedure: as §1

L145 C. albicans = assay: MIC, broth microdilution (CLSI); details: Candida albicans
Procedure: Antibacterial activity. The antimicrobial activity of the antibiotic 103/33-F710 was determined by the broth microdilution method according to the procedures published by the Clinical and Laboratory Standards Institute (CLSI), formerly the National Committee for Clinical Laboratory Standards (NCCLS) (document M07-A9). Microorganisms were grown in either cation-adjusted Mueller Hinton Broth (Staphylococci, Enterococci, Moraxella catarrhalis, Escherichia coli), Todd Hewitt medium (Streptococci) or RPMI 1640 medium for Candida albicans on 96-well microtiter plates. Each bacterial strain was inoculated with 2-5×10^5 CFU/ml, Candida albicans with 10^4 CFU/ml. Cultures were incubated at 35°C in air. After 18-24 hours visual readings were performed and MICs (Minimal Inhibitory Concentrations) determined. The effect of 30% bovine serum was determined under the same experimental conditions. The strains used were clinical isolates or strains from American Type Culture Collection (ATCC). The antibiotic 103/33-F710 was dissolved in DMSO to obtain a 1000 µg/ml stock solution, and subsequently diluted in water to obtain working solution. Table 5: Antimicrobial activity reported as MIC (µg/ml) of ID103/33-F710
Antibacterial activity. The antimicrobial activity of the antibiotic 103/33-F696 was determined by the broth microdilution method according to the procedures disclosed in Example 7. Table 6: Antimicrobial activity reported as MIC (µg/ml) of compound 2 (103/33-F696)
Antibacterial activity. The antimicrobial activity of the antibiotic 103/33-F712 was determined by the broth microdilution method according to the procedures disclosed in Example 7. Table 7: Antimicrobial activity reported as MIC (µg/ml) of ID103/33-F712

Structure (SMILES): CN[C@H](CC(C)C)C(=O)N[C@H]1C(=O)N[C@@H](CC(N)=O)C(=O)N[C@H]2C(=O)N[C@H]3C(=O)N[C@H](C(=O)N[C@H](C(=O)O)c4cc(O)cc(O)c4-c4cc3ccc4O)[C@H](O)c3ccc(c(Cl)c3)Oc3cc2cc(c3O[C@@H]2O[C@H](CO)[C@@H](O)[C@H](O)[C@H]2O[C@H]2C[C@](C)(N)[C@H](O)[C@H](C)O2)Oc2ccc(cc2Cl)[C@H]1O [Vancomycin, reference compound]
MIC (L100 S. aureus ATCC6538P): 1 µg/mL (≈ 0.69 µM)
MIC (L1400 S. aureus HA-MRSA): 1 µg/mL (≈ 0.69 µM)
MIC (L1577 S. epidermidis): 1 µg/mL (≈ 0.69 µM)
MIC [1]: 2 µg/mL (≈ 1.38 µM)
MIC (L1730 S. haemolyticus): 0.5 µg/mL (≈ 0.345 µM)
MIC (L1730 S. haemolyticus; Staphylococcus haemolyticus): 1 µg/mL (≈ 0.69 µM)
MIC (L3294 M. catarrhalis): 16 µg/mL (≈ 11 µM)
MIC [2]: 4 µg/mL (≈ 2.76 µM)
MIC (L44 S. pneumoniae): 0.5 µg/mL (≈ 0.345 µM)
MIC (L47 E. coli): > 128 µg/mL
MIC (L49 S. pyogenes C203): 0.5 µg/mL (≈ 0.345 µM)
MIC (L559 E. faecalis): 0.5 µg/mL (≈ 0.345 µM)
MIC (L560 E. faecalis VanA): > 128 µg/mL
MIC (L568 E. faecium): 2 µg/mL (≈ 1.38 µM)
MIC (L569 E. faecium VanA; Enterococcus faecium): > 128 µg/mL
MIC (L569 E. faecium VanA; L569 E. faecium VanA 30 % SB (30% bovine serum)): > 128 µg/mL
MIC (L819 S. aureus Smith): 1 µg/mL (≈ 0.69 µM)
MIC [3]: 1 µg/mL (≈ 0.69 µM)
MIC [4]: 0.5 µg/mL (≈ 0.345 µM)
MIC [5]: > 128 µg/mL

MIC (L145 C. albicans): 0.5 µg/mL (≈ 0.541 µM)
Structure (SMILES): C[C@@H]1[C@H](O)[C@@H](C)/C=C/C=C/C=C/C=C/C=C/C=C/C=C/[C@H](O[C@@H]2O[C@H](C)[C@@H](O)[C@H](N)[C@@H]2O)C[C@@H]2O[C@](O)(C[C@@H](O)C[C@@H](O)[C@H](O)CC[C@@H](O)C[C@@H](O)CC(=O)O[C@H]1C)C[C@H](O)[C@H]2C(=O)O [amphotericin B, reference compound]
